In patent US5563142A, “Diaromatic substituted compounds as anti-HIV-1 agents” (The Upjohn Company, priority 1994, dated 1996):

Experiments:
[1] = molecular target: T1, viral reverse transcriptase (Human immunodeficiency virus type 1 group M subtype B, UniProt P04585); assay: Viral reverse transcriptase inhibition, cell free assay; type: biochemical, human immunodeficiency virus (HIV-1); details: read-out: RT % INHIBITION (100 μM), 100 μM; poly rC or poly rG template
T1 construct: Viral reverse transcriptase is found in extracts from bacterial clones; made in house; host or cells: Escherichia coli (extracts of bacterial clones, by the procedure of Larder et al., EMBO J. 6:3133-3137, 1987)
Procedure, shortened: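 E. coli-expressed HIV-1 RT extract was incubated with inhibitor, 10 μM [35S]-dNTP, poly rC/rG template and oligo dG/dT primer in Tris pH 8.3 with Mg2+ at 37 °C (30 min; 15 min in an alternative version). DNA incorporation was counted on filters and reported as % inhibition (at 100 μM in one version) and IC50.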

[2] = test system: HIV in primary human peripheral blood lymphocytes; assay: Primary PBL assay: inhibition of viral replication (p24 & RNA); type: cell-based; details: Human immunodeficiency virus 1, Lymphocyte, primary human lymphocytes infected with HIV, days three and four, read-out: PBL INHIBITION OF VIRAL REPLICATION (p24 & RNA) ED50
Procedure, shortened: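 Mitogen-stimulated human PBLs infected with standardized HIV, cultured with drug 4 days at one tenth of the antiproliferative half-maximal concentration. Secreted p24 by capture-ELISA and total HIV RNA by hybridization on days 3 and 4, with viability in parallel; ED50 is the concentration giving 50% reduction in p24.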

[3] = test system: HIV-1 (MT-2 cells infected with HIV-1); assay: Inhibition of HIV-induced syncytia formation in MT-2 cells; type: cell-based; details: Human immunodeficiency virus 1, MT2; MT-2 cells infected with HIV-1; read-out: INHIBITION OF SYNCYTIA FORMATION ED50
Excerpt: This test is described in Quantitative Infectivity Assay for HIV-1 and -2., Nature 332: 469-470, 1988 as well as in AIDS RESEARCH AND HUMAN RETROVIRUSES, Vol. 4, No. 6, pages 449-455 (1988), Mary Ann Liebent, Inc., Publishers; in an article entitled "Nucleotide Dimers Suppress HIV Expression In VITRO". The results (IC50 means the concentration, in μM of drug, required to inhibit syncytia formation to the extent of 50%) of various assay(s) are combined and reported as % inhibition and IC50 (calculated).
ability of various compounds used to inhibit HIVinduced syncytia formatio
in a tissue culture assay using MT2 cells infected with HIV1. This test i
described by Nara et al., Quantitative infectivity assay for HIV1 and 2,
Nature 332, 469-470 (1988), as well as in AIDS RESEARCH AND HUMAN
RETROVIRUSES, vol. 4, No. 6, pages 449-455 (1988), Mary Ann Liebent, Inc.
Publishers, and in an article by Mariano Busso, et al., entitled
"Nucleotide Dimers Suppress HIV Expression In Vitro". The results
(ED50 means the concentration, in μM of drug, required to inhibit
syncytia formation to the extent of 50%) of various assay are combined an
reported in Table I. In comparison, the known commercial compound, AZT,
percent reductions in syncytia formation at concentrations of
approximately 1 μM and 0.5 μM, respectively.

[4] = test system: HIV; details: cited from earlier work

| Compound | inhibition at 100 µM [1] | EC50 [2] | IC50 [3] | activity against HIV in vitro [4] |
| --- | --- | --- | --- | --- |
| CCNc1ccccc1N1CCN(C(=O)c2cc3ccccc3[nH]2)CC1 [Example 29, 1-[Indolyl-2-carbonyl]-4-[2-(ethylamino)phenyl]piperazine] | 75 to 83% | 100 to 1000 nM | 2800 nM |  |
| CCOc1ccccc1N1CCN(C(=O)c2cc3ccccc3[nH]2)CC1 [Example 10, 1-[Indolyl-2-carbonyl]-4-[2-ethoxyphenyl]piperazine] | 72 to 87% | > 1000 nM | 5000 nM |  |
| Nc1ccn([C@H]2CC[C@@H](CO)O2)c(=O)n1 [ddC] |  |  |  | potent activity |
| CC(C)Nc1cccnc1N1CCN(C(=O)c2cc3cc(F)ccc3[nH]2)CC1 [Example 25, 1-[5-Fluoroindolyl-2-carbonyl]-4-[3-(1-methylethylamino)-2-pyridinyl]piperazine] | 96% | 3 nM | 300 to 400 nM |  |
| CCNc1cccnc1N1CCN(C(=O)c2ccc3ccccc3c2)CC1 [Example 66, 1-[Naphthyl-2-carbonyl]-4-[3-(ethylamino)-2-pyridinyl]-piperazine] | 68 to 79% | 1000 to 10000 nM | > 280000 nM |  |
| CCNc1ccccc1N1CCN(C(=O)c2cc3cc(OC)ccc3[nH]2)CC1 [Example 28, 1-[5-Methoxyindolyl-2-carbonyl]-4-[2-(ethylamino)phenyl]piperazine] | 70% | 100 to 1000 nM | > 26000 nM |  |
| CCNc1cccnc1N1CCN(Cc2cc(C)c(O)c(C)c2)CC1 [Example 4, 1-[4-Hydroxy-3,5-dimethylbenzyl]-4-[3-(ethylamino)-2-pyridinyl]piperazine] | 58% | ≥ 10000 nM | 2500 nM |  |
| CC(C)(C)Nc1cccnc1N1CCN(C(=O)c2cc3ccccc3[nH]2)CC1 [Example 44, 1-[Indolyl-2-carbonyl]-4-[3-(1,1-dimethylethylamino)-2-pyridinyl]piperazine] | 89% | 1 to 10 nM | 100 nM |  |
| O=c1[nH]cnc2c1ncn2[C@H]1CC[C@@H](CO)O1 [ddI] |  |  |  | potent activity |
| CCNc1cccnc1N1CCN(C(=O)c2ccc[nH]2)CC1 [Example 70, 1-[Pyrrolyl-2-carbonyl]-4-(3-ethylamino-2-pyridinyl)piperazine] | 83 to 91% | ≥ 1000 nM | 2000 nM |  |
